Laboratory results: patent US8440638B2, “Compositions and methods for modulating calcium flux, glucose homeostasis and apoptosis” (Wisconsin Alumni Research Foundation, priority 2004, dated 2013)

Tests used:
Assay type in all cases: cell-based
TRPM2 channel = biological target: T1, TRPM2 channel (Homo sapiens, UniProt O94759); experiment: Whole cell patch clamp, TRPM2 channel gating in tet-induced TRPM2-expressing HEK-293 cells
T1 construct: expressed in transfected cells; host or cells: tetracycline-inducible HEK-293
T1 sequence (O94759 whole entry): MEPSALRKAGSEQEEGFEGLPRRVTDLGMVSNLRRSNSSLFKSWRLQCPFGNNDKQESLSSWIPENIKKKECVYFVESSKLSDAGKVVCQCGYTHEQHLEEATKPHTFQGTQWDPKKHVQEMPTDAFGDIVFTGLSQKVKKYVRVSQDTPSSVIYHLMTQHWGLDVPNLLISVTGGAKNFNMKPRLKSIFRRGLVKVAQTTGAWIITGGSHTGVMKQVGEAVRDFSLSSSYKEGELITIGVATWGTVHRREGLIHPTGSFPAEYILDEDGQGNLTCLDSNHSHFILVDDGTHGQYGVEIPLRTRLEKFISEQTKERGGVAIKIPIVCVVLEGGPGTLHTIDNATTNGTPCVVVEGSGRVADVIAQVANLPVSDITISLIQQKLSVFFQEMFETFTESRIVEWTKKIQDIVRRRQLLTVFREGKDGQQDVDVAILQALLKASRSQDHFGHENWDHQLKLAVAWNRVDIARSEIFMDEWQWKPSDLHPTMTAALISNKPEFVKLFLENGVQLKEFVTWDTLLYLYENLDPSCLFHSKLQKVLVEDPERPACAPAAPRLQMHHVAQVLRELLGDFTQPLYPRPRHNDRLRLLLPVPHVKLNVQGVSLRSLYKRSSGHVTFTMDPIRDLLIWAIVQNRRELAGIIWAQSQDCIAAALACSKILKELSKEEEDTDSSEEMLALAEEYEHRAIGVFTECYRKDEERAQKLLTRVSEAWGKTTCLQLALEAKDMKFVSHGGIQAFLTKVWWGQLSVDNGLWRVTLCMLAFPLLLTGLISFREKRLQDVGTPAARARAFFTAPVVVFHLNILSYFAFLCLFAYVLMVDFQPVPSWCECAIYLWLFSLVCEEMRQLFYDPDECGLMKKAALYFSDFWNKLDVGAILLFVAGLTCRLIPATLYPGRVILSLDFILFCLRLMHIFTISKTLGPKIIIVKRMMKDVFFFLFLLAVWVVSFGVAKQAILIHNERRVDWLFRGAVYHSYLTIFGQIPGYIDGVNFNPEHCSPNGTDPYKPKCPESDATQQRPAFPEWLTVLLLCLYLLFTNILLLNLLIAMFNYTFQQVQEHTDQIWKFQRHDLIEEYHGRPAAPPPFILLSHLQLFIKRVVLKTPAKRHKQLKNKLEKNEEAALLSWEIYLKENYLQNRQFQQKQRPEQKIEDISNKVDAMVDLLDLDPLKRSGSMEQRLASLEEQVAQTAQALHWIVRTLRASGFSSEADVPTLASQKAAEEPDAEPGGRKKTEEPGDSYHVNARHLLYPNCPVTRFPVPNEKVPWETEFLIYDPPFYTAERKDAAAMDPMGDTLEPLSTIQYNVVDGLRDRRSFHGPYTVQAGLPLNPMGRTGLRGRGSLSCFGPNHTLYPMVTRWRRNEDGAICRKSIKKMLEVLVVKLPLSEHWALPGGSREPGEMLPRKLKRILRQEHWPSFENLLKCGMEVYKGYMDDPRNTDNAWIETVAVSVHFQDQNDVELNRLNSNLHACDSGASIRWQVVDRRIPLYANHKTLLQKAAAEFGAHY
Experimental: Shown is the development of whole cell currents over time in TRPM2-expressing HEK-293 cells. Bath solution was standard ringer's, and pipette solution was Cs-based and included 10 mM EGTA to buffer intracellular Ca^2+ to 10 nM. The patch pipette contained various concentrations of (FIG. 1a) ADPr, (FIG. 1b) OAADPr (FIG. 1c) OAADPr and puromycin as indicated in the figure. FIG. 1d.) Cytoplasmic OAADPr esterase activity is inhibited by puromycin. 200 μM O-[^3H]AADPr and 0-100 μM puromycin were added to cytoplasmic HEK-293 extract for 30 min. Percent hydrolysis of O-[^3H]AADPr to [^3H]acetate was measured as described hereinbelow. FIG. 1e.) Nuclear OAADPr acetyltransferase activity is not inhibited by puromycin. HEK-293 nuclear extract was incubated with 200 μM O-[^3H]AADPr in the presence or absence of 100 μM puromycin for 60 min. The reactions were quenched and resolved by HPLC. The radioactivity in collected fractions was determined by liquid scintillation counting. FIGS. 1f-g.) In vivo detection of OAADPr. Mass spectrum of HEK-293 generated OAADPr (peak m/z of 602.0894; the theoretical m/z for OAADPr is 602.0895) after puromycin treatment, with authentic [^13C]-OAADPr (peak m/z of 603.0851 and isotopic distribution of 604.0878 and 605.0928) as a standard. Peak 599.3691 is from the matrix.
Patch clamp electrophysiology was performed as previously described (23). Briefly, cells were patch clamped in the whole cell configuration at 25° C. using pipettes with resistances ranging from 2-3 MOhms. Currents were recorded on an EPC9 patch clamp amplifier with automatic capacitance compensation using a protocol generating a 50 msec voltage ramp from −100 to +100 mv every two seconds at a holding potential of 0 mv (appropriately corrected for liquid junction potential). Bath solution included 150 mM NaCl, 2.8 mM KCl, 5 mM CsCl, 1 mM CaCl2, 2 mM MgCl2, and 10 mM Hepes (pH 7.2). Pipette solution included 135 mM CsGlutamate, 1 mM MgCl2, 8 mM NaCl, 10 mM Hepes (pH 7.2), and 10 mM EGTA. […]

HEK-293 cells = experiment: Cell viability assay (calcein fluorescence), parental HEK-293 cells; conditions: parental HEK-293, 5-50 μM, 16 h
Experimental: (§1) Shown are HEK-293 cells (closed diamond) and HEK-293 cells stably transfected with a tet-controlled TRPM2 construct in the presence (open squares) or absence of (open diamonds) tetracycline. Cells incubated in the presence of 0-50 μM puromycin for 16 h were assayed for viability by measuring fluorescence of calcein in live cells. b.) Removal of calcium rescues cells from puromycin induced cell death. TRPM2-expressing HEK-293 cells were grown in complete DMEM media and 1 μg/ml tetracycline until 80-90% confluent. One set of cells were re-fed with the same complete media (closed diamonds) and the other set of cells were rinsed with PBS and fed with modified media containing 1 μg/ml tetracycline, 5 mM EGTA and without calcium chloride (open squares). […] HEK-293 (close diamond) and TRPM2 expressing HEK-293 cells in the absence (open diamond) or presence of (closed square) tetracycline were exposed to 0-10 μg/ml cycloheximide for 16 h. Cell viability was determined as described in (a).
HEK-293, tet-inducible HEK-293, and CRI-G1 cells were seeded into 6 well plates at a density of 500,000 cells per well. […] Calcein is retained in living, but not dead cells, where it undergoes catalytic conversion into a fluorescent compound Fluorescence in each well was measured in a microplate reader using excitation and emission filters at 485/530 nm, respectively.

[1] = test system: TRPM2-expressing HEK-293 cells; experiment: Cell viability assay (calcein fluorescence), tet-inducible TRPM2 HEK-293 cells
Experimental: as §1, with “Cells incubated in the presence of 0-50 μM puromycin for 16 h were assayed for viability by measuring fluorescence of calcein in live cells. b.) Removal of calcium rescues cells from puromycin induced cell death.” left out
TRPM2-expressing HEK-293 cells were exposed to 0-50 μM puromycin for 16 h in the presence (open diamond) or absence (closed diamond) of 500 μM nicotinamide. […] TRPM2-expressing HEK-293 cells were exposed to 0-50 μM puromycin for 16 h in the presence (open diamond) or absence (closed diamond) of 1.5 mM 3-aminobenzamide. Cell survival was determined as described in (a).
HEK-293 and tetracycline (tet)-inducible HEK-293 TRPM2-expressing cells (23) were cultured in DMEM and 10% FBS at 37° C., 5% CO2. Media used to culture tet-inducible HEK-293 cells was supplemented with blasticidin (5 μg ml^−1; Invitrogen) and zeocin (0.4 mg/ml; Invitrogen). To induce expression of TRPM2 in recombinant HEK-293 cells, tetracycline was added to the media at 1 μg ml^−1 (Invitrogen) 24 h prior to experiments. The CRI-G1 rat β-islet tumor cell line was obtained from EACC and cultured in DMEM, 10% FBS and 2 mM glutamine.
HEK-293, tet-inducible HEK-293, and CRI-G1 cells were seeded into 6 well plates at a density of 500,000 cells per well. When cells were 50-70% confluent, puromycin was added to the media at various concentrations for 16 hours. Cell monolayers were rinsed with PBS, after which 0.5 ml of 2 μM calcein in PBS was added directly to the well for 10-20 minutes. Calcein is retained in living, but not dead cells, where it undergoes catalytic conversion into a fluorescent compound Fluorescence in each well was measured in a microplate reader using excitation and emission filters at 485/530 nm, respectively.

**Q.** How did the “effect on TRPM2 channel activity, compound alone” value (TRPM2 channel; 100 μM puromycin alone, data not shown) turn out when `COc1ccc(C[C@H](N)C(=O)N[C@H]2[C@@H](O)[C@H](n3cnc4c(N(C)C)ncnc43)O[C@@H]2CO)cc1` [puromycin] was run?
**A.** Its value is “no affect”.

**Q.** What about the “enhancement of OAADPr gated TRPM2 channel activity” value (TRPM2 channel; 125-250 μM puromycin in the patch pipette with OAADPr) of the same compound?
**A.** The value was “no significant enhancement”.

**Q.** What about the “cell death following puromycin treatment” value (HEK-293 cells) of the same compound?
**A.** Its value is “no significant cell death”.

**Q.** What about the “puromycin-induced cell death in Ca2+-free media” value ([1]; Ca2+ removed (5 mM EGTA) before puromycin 0-500 μM, 6 h) of the same compound?
**A.** The value was “completely blocked”.

**Q.** And the “puromycin-dependent cell death, TRPM2 not induced” value ([1]; TRPM2 expression not induced by tet)?
**A.** Its value is “nearly complete protection”.

**Q.** What about the “puromycin-dependent cell death, TRPM2 not induced, highest level” value ([1]; not induced by tet, 50 μM puromycin) of the same compound?
**A.** The value was “Some cell death”.

**Q.** And the “cell death following puromycin treatment” value ([1]; tet-induced TRPM2 expression, as little as 5 μM, dose-dependence up to 50 μM, 16 h)?
**A.** The value was “profound sensitivity to cell death”.
